Reference: patent US20160287565A1, “COMBINATION THERAPY FOR TREATING DISORDERS ASSOCIATED WITH EXCESS CORTISOL PRODUCTION” (Millendo Therapeutics, Inc., priority 2015, published 2016)

Key:
Dogs = experiment: ATR-101 in dogs, serum steroid and steroid precursor levels by LC-MS/MS pre- and post-ACTH stimulation; type: in vivo, dog; settings: 3 mg/kg daily 7 days then 30 mg/kg 7 days, oral gavage
Method: Changes in steroid and steroid intermediate levels are shown as % reduction as compared to maximum level as measured on Day 0. *Day 1 data used for maximum steroid level. **Day 3 data used for maximum steroid level.
Dogs were administered daily doses of 3 mg/kg of ATR-101 for 7 days by oral gavage, and then 30 mg/kg for 7 days by oral gavage. Blood was collected on day 14 to measure basal steroid and steroid precursor serum levels (pre-ACTH stimulation) and steroid/steroid precursor levels post-ACTH stimulation by LC-MS/MS. For ACTH stimulation, 5 μg/kg (not to exceed 250 μg) of CORTROSYN™ (also known as cosyntropin or synthetic ACTH) was administered via bolus i.v. administration, and blood samples were collected 1 hour post-CORTROSYN™ administration. Changes in steroid and steroid precursor levels are shown as % reduction as compared to maximum level as measured on Day 0, except as noted (see, FIG. 2; *Day 1 data used for maximum steroid level; **Day 3 data used for maximum steroid level).

[1] = test system: human, adult patients with Cushing's disease; settings: cited from earlier work
[2] = test system: human adult patients with Cushing's disease; settings: cited from earlier work

For `CC(C)c1cccc(C(C)C)c1NC(=O)NCC1(c2ccc(N(C)C)cc2)CCCC1` [ATR-101, N-(2,6-bis(1-methylethyl)-phenyl)-N′-((1-(4-(dimethylamino)phenyl)cyclopentyl)-methyl)urea], which “synthesis of steroids and steroid precursors produced in the adrenal cortex” value (Dogs; day 14, FIG. 4) is on record?
Its value is “broad inhibitory effects”.

What about the 11-deoxycorticosterone level (Dogs; day 14 serum) of the same compound?
The 11-deoxycorticosterone level was “decreased”.

And the 11-deoxycortisol level (Dogs; day 14 serum)?
The 11-deoxycortisol level was “decreased”.

What about the testosterone level (Dogs; day 14 serum) of the same compound?
The testosterone level was “decreased”.

Which results are given for `N#Cc1ccc([C@H]2CCc3cncn32)c(F)c1` [osilodrostat]?
females developing acne ([1]; 22-week treatment course): three; females developing hirsutism ([1]; 22-week treatment course): two; females with elevated testosterone who developed adverse symptoms of androgen excess ([1]; 22-week treatment course): Four; women with above normal testosterone levels during the treatment course ([1]; of the 12 women who completed 22 weeks, normal range 2-45 ng/dL, 4-60 mg/day): 9; secretion of ACTH ([2]; during LCI699 treatment (day 70) vs day 1, FIG. 2A): increased secretion of ACTH; testosterone levels (in females) ([2]; during LCI699 treatment (day 70), 8 females, FIG. 2C): increased; 11-deoxycortisol level ([2]; during LCI699 treatment (day 70), FIG. 2B): build-up; 11-deoxycorticosterone levels ([2]; during LCI699 treatment (day 70), FIG. 2D): increased; serum cortisol ([2]; during LCI699 treatment (day 70), up to 100 mg/day b.i.d., n=12): decrease in serum cortisol
